Reference: patent publication US12459894B2, “Orally active melanocortin receptor-4 compounds” (Palatin Technologies, Inc., priority 2018, dated 2025)
Marks after values point to notes of the source that are not given here.

How the values were obtained:
[1] = biological target: T1, MC4r (Homo sapiens, UniProt P32245); assay: Functional cAMP study in human MC4r expression system approximating maximal physiologic receptor densities; type: cell-based; parameters: host or cells: TREx-293 transfected with pcDNA4/TO/MC4R
Description: Assay for Agonist Activity. Accumulation of intracellular cAMP was examined as a measure of the ability of the peptides of the present invention to elicit a functional response in HEK-293 cells that express MC4-R. Confluent HEK-293 cells that express recombinant hMC4-R were detached from culture plates by incubation in enzyme-free cell dissociation buffer. Dispersed cells were suspended in Hanks' Balanced Salt Solution containing 10 mM HEPES (pH 7.5), 1 mM MgCl2, 1 mM glutamine, 0.5% albumin and 0.3 mM 3-isobutyl-1-methyl-xanthine (IBMX), a phosphodiesterase inhibitor. The cells were plated in 96-well plates at a density of 0.5×10^5 cells per well and pre-incubated for 10 minutes. Cells were exposed for 15 minutes at 37° C. to peptides of the present invention dissolved in DMSO (final DMSO concentration of 1%) at a concentration range of 0.05-5000 nM in a total assay volume of 200 μL. NDP-α-MSH was used as the reference agonist. cAMP levels were determined by an HTRF® cAMP cell-based assay system from Cisbio Bioassays utilizing cryptate-labeled anti-cAMP and d2-labeled cAMP, with plates read on a Perkin-Elmer Victor plate reader at […]. Data analysis was performed by nonlinear regression analysis with Graph-Pad Prism® software. The maximum efficacies of the test peptides of the present invention were compared to that achieved by the reference melanocortin agonist NDP-αMSH. […]

[2] = biological target: T1, MC4r; assay: Competitive inhibition binding assay, MC4r; parameters: expressed in transfected cells; host or cells: HEK-293 (membrane homogenates); details: binding studies
Description: A competitive inhibition binding assay is performed using membrane homogenates prepared from HEK-293 cells that express recombinant hMC1ra, hMC4r, hMC3r, or hMC5r, and from B16-F10 mouse melanoma cells (containing endogenous MC1r). In the examples that follow, all values are for human recombinant receptors unless otherwise noted. Assays are performed in 96 well GF/B Millipore multiscreen filtration plates (MAFB NOB10) pre-coated with 0.5% bovine serum albumin (Fraction V). […] After incubation for 60 to 90 minutes at 37° C., the assay mixture is filtered and the membranes washed three times with ice-cold buffer. Filters are dried and counted in a gamma counter for bound radioactivity.
Maximal specific binding (100%) is defined as the difference in radioactivity (cpm) bound to cell membranes in the absence and presence of 1 μM NDP-α-MSH. […] Each assay is conducted in duplicate or triplicate and the actual mean values are described, with results less than 0% reported as 0%. Ki values for test compounds are determined using Graph-Pad Prism® curve-fitting software.
Competitive Binding Assay Using Eu-NDP-α-MSH. […] The plates were incubated on a shaker for 15 minutes and read at 340 nm excitation and 615 nm emission wavelengths. […] Ki values were determined by curve-fitting with Graph-Pad Prism® software using a one-site fixed-slope competition binding model.

[3] = system: C57BL/6 male DIO mice; assay: Body weight and food intake in vivo study in diet induced obese (DIO) mice; parameters: species or system mouse; details: for Body Weight Change (%) Mean / Food Intake - 24 Hours (g) Mean: 1 mg/kg subcutaneous twice daily
Description: Compound 7.1 was assessed in a body weight and food intake in vivo study in diet induced obese (DIO) mice. C57BL/6 male DIO mice were utilized, that were 17 weeks of age on arrival. Animals were pre-conditioned on a high-fat diet for 11 weeks by Jackson Labs. […] Animals were single housed within a limited access rodent facility, and provided ad libitum with a commercial rodent diet and free access to drinking water. Animals were randomized into five groups, a vehicle group, three dose levels of compound 7.1 (3 mg/kg, 10 mg/kg and 30 mg/kg), and Peptide A, a positive control cyclic peptide of the formula Ac-Arg-cyclo(Om-Asn-D-Phe-Arg-Trp-Glu)-NH2. Following three days of sham dosing, animals were dosed for three days, with vehicle or Compound 7.1 dosed orally once daily at within one hour of lights out in the AM, and Peptide A dosed by subcutaneous injection twice daily within one hour before lights out and six hours after lights out. Body weights were measured one hour prior to lights out, and feed weights were measured both one hour prior to lights out and six hours post lights out.
• *p<0.05 vs. sham (vehicle control) using two-way ANOVA followed by Dunnett's post-test. • **p<0.01 vs sham (vehicle control) using two-way ANOVA followed by Dunnett's post-test.

T1 sequence (P32245 whole entry): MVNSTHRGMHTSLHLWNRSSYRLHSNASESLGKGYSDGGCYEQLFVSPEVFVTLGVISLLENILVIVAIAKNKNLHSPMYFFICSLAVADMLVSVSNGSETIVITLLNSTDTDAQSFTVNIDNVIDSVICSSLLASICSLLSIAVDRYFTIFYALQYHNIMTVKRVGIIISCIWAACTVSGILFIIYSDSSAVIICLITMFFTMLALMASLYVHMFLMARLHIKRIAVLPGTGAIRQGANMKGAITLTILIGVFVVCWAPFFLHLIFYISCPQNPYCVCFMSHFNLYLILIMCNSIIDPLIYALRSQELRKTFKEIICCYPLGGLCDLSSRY

Molecule	EC50 [1]	Emax ([1]; read-out: relative efficacy, compared to NDP-α-MSH)	Ki [2]	Body Weight Change (%) Mean ([3]; Day 0)	Food Intake - 24 Hours (g) Mean ([3]; Day 0, 24 hours post lights out)	Body Weight Change (%) Mean ([3]; Day 1)	Food Intake - 24 Hours (g) Mean ([3]; Day 1, 24 hours post lights out)	Body Weight Change (%) Mean ([3]; Day 2)	Food Intake - 24 Hours (g) Mean ([3]; Day 2, 24 hours post lights out)	Body Weight Change (%) Mean ([3]; Day 3)	feed intake ([3]; 1 mg/kg, 24 hours post lights out, entirety of the study, vs sham)	body weight ([3]; two times daily 1 mg/kg, throughout the study)
CNC(C)(C)C(=O)N[C@H](Cc1ccc(Cl)cc1)C(=O)N1CCN(N(CC(C)C)C2CCN(C(C)=O)CC2)CC1 [Compound 7.9, N-[(1R)-2-[4-[(1-acetyl-4-piperidyl)-isobutyl-amino]piperazin-1-yl]-1-[(4-chlorophenyl)methyl]-2-oxo-ethyl]-2-methyl-2-(methylamino)propanamide]	5 nM	19%	5 nM	–	–	–	–	–	–	–	–	–
Ac-Arg-cyclo(Om-Asn-D-Phe-Arg-Trp-Glu)-NH2 [Peptide A, reference compound]	–	–	–	0%	0.99** g	−5.69** %	1.10** g	−8.37** %	1.67** g	−8.78** %	significantly inhibited feed intake	decreased animal body weights
